Measured values published in ChEMBL document CHEMBL1153213, “Inhibition of CTP synthase from Escherichia coli by xanthines and uric acids” (Bioorg Med Chem Lett, 2010).
Activity calls are given as the source filed them. The calls are words filed in the database; no cut-off is given here.

Columns and labels:
[1] = Inhibition of Escherichia coli recombinant N-terminal hexahistidine-tagged CTP synthetase expressed in Escherichia coli BL21 (DE3) assessed as inhibition of CTP formation by continuous spectrophotometric assay in presence of 150 mM NH4Cl
[2] = Inhibition of Escherichia coli recombinant N-terminal hexahistidine-tagged CTP synthetase expressed in Escherichia coli BL21 (DE3) assessed as inhibition of CTP formation by continuous spectrophotometric assay in presence of 10 mM L-glutamine and 0.15 mM GTP
[3] = tested on: Escherichia coli; experiment: Inhibition of Escherichia coli recombinant N-terminal hexahistidine-tagged CTP synthetase expressed in Escherichia coli BL21 (DE3) assessed as inhibition of CTP formation at 1 mM in presence of 1mM UTP
[4] = tested on: Escherichia coli; experiment: Inhibition of Escherichia coli recombinant N-terminal hexahistidine-tagged CTP synthetase expressed in Escherichia coli BL21 (DE3) assessed as inhibition of CTP formation at 1 mM in presence of 1mM ATP
[5] = Inhibition of Escherichia coli recombinant N-terminal hexahistidine-tagged CTP synthetase expressed in Escherichia coli BL21 (DE3) assessed as inhibition of CTP formation in Hepes buffer at pH 8 by continuous spectrophotometric assay in presence of 10 mM L-glutamine and 0.15 mM GTP
[6] = Inhibition of Escherichia coli recombinant N-terminal hexahistidine-tagged CTP synthetase expressed in Escherichia coli BL21 (DE3) assessed as inhibition of CTP formation in TAPS buffer at pH 8.5 by continuous spectrophotometric assay in presence of 150 mM NH4Cl
[7] = Inhibition of Escherichia coli recombinant N-terminal hexahistidine-tagged CTP synthetase expressed in Escherichia coli BL21 (DE3) assessed as inhibition of CTP formation in Hepes buffer at pH 8 by continuous spectrophotometric assay in presence of 150 mM NH4Cl
[8] = Inhibition of Escherichia coli recombinant N-terminal hexahistidine-tagged CTP synthetase expressed in Escherichia coli BL21 (DE3) assessed as inhibition of CTP formation in TAPS buffer at pH 8.5 by continuous spectrophotometric assay in presence of 10 mM L-glutamine and 0.15 mM GTP
[9] = Multisite inhibition of Escherichia coli recombinant N-terminal hexahistidine-tagged CTP synthetase expressed in Escherichia coli BL21 (DE3) assessed as inhibition of CTP formation in Hepes buffer at pH 8 in presence of 0.54 mM NH4Cl
[10] = Multisite inhibition of Escherichia coli recombinant N-terminal hexahistidine-tagged CTP synthetase expressed in Escherichia coli BL21 (DE3) assessed as inhibition of CTP formation in Hepes buffer at pH 8 in presence of 1.36 mM NH4Cl
[11] = Multisite inhibition of Escherichia coli recombinant N-terminal hexahistidine-tagged CTP synthetase expressed in Escherichia coli BL21 (DE3) assessed as inhibition of CTP formation in Hepes buffer at pH 8 in presence of 2.72 mM NH4Cl
[12] = Multisite inhibition of Escherichia coli recombinant N-terminal hexahistidine-tagged CTP synthetase expressed in Escherichia coli BL21 (DE3) assessed as inhibition of CTP formation in Hepes buffer at pH 8 in presence of 5.44 mM NH4Cl
[13] = Multisite inhibition of Escherichia coli recombinant N-terminal hexahistidine-tagged CTP synthetase expressed in Escherichia coli BL21 (DE3) assessed as inhibition of CTP formation in Hepes buffer at pH 8 in presence of 8.16 mM NH4Cl

Row | Structure (SMILES) | IC50 ([1]; read-out: IC50) | IC50 ([2]; read-out: IC50) | IC50 [5] | IC50 [6] | IC50 [7] | IC50 [8] | other results
1 | O=C(O)Cc1cc(=O)[nH]c(=O)[nH]1 | 3170 µM | 2600 µM | – | – | – | – | –
2 | Nc1[nH]cnc2ncnc1-2 [ADENINE] | 12900 µM | 15800 µM | – | – | – | – | –
3 | Nc1ncnc2c1ncn2[C@@H]1O[C@H](CO)[C@@H](O)[C@H]1O [ADENOSINE] | 11000 µM | – | – | – | – | – | –
4 | NC(=O)NC1NC(=O)NC1=O (stereo unspecified) [ALLANTOIN] | – | – | – | – | – | – | IC50 [1]: Not Active; IC50 [2]: Not Active
5 | Cn1c(=O)c2c(ncn2C)n(C)c1=O [CAFFEINE] | 510 µM | 390 µM | – | – | – | – | IC50 [9]: 440 µM; inhibition [3]: inactive; IC50 [10]: 450 µM; IC50 [11]: 420 µM; inhibition [4]: inactive; IC50 [12]: 450 µM; IC50 [13]: 440 µM
6 | Cn1c(=O)c2nc[nH]c2n(C)c1=O [THEOPHYLLINE] | – | – | 430 µM | 400 µM | 550 µM | 300 µM | –
7 | O=c1cc[nH]c(=O)[nH]1 [URACIL] | 4700 µM | 4200 µM | – | – | – | – | –
8 | Oc1nc(O)c2nc(O)[nH]c2n1 [URIC ACID] | – | – | 60 µM | 113 µM | 87 µM | 60 µM | –
9 | O=c1ccn([C@@H]2O[C@H](CO)[C@@H](O)[C@H]2O)c(=O)[nH]1 [URIDINE] | 4600 µM | 3100 µM | – | – | – | – | –
10 | O=c1[nH]c(=O)c2nc[nH]c2[nH]1 [XANTHINE] | – | – | 230 µM | 220 µM | 370 µM | 160 µM | –

Now from value to compound, other results behind:

Row | IC50 ([1]; read-out: IC50) | IC50 ([2]; read-out: IC50) | IC50 [5] | IC50 [6] | IC50 [7] | IC50 [8] | Structure (SMILES) | other results
11 | 121 µM | 79 µM | – | – | – | – | Cn1c(=O)c2c(n(C)c1=O)n(C)c(=O)n2C | –
12 | 70 µM | 67 µM | – | – | – | – | Cn1c(=O)c2c([nH]c(=O)n2C)n(C)c1=O | –
13 | 90 µM | 63 µM | – | – | – | – | Cn1c(=O)[nH]c(=O)c2c1[nH]c(=O)n2C | inhibition [3]: inactive; inhibition [4]: inactive
14 | 96 µM | 101 µM | – | – | – | – | Cn1c(=O)[nH]c2[nH]c(=O)[nH]c2c1=O | –
15 | – | – | 113 µM | 109 µM | 119 µM | 61 µM | Cn1c(=O)[nH]c2[nH]c(=O)n(C)c2c1=O | –
16 | – | – | 88 µM | 99 µM | 72 µM | 64 µM | Cn1c(=O)c2[nH]c(=O)[nH]c2n(C)c1=O | –
17 | – | – | 440 µM | 360 µM | 480 µM | 200 µM | Cn1c(=O)[nH]c2ncn(C)c2c1=O [PARAXANTHINE] | –
18 | 580 µM | 420 µM | – | – | – | – | Cn1cnc2c1c(=O)[nH]c(=O)n2C [THEOBROMINE] | –
